Data on one substance can be found in patent US6207389A, “Methods of controlling T lymphocyte mediated immune responses” (HRC Research and Development Limited Partnership, priority 1995, dated 2001).

The test system of experiment [1] is PBMC from children with recent onset diabetes. Description: Proliferative response of PBMC to peptide fragments in the presence of IL2 (Example 4). Format: cell-based, human. As to conditions: patient PBMC. The procedure: (§1) Cultures containing 5×10^4 cells were incubated for 7 days at 37° C. in serum-free HL-1 medium (Ventrex, Portland, Me.) containing 1 μg antigen per well for test samples.
(§2) After an overnight pulse of 1 μci ^3 H thymidine, cultures were harvested and submitted to liquid scintillation counting. Proliferation was expressed as cpm ^3 HTdR×10^-3.
Control cultures were stimulated with 1 μg ovalbumin or horse or human albumin. […] A 4 h. pulse with 1 μCi ^3 H thymidine was used.
Each synthetic peptide was tested with PBMC from at least 3 children with recent onset diabetes. Stimulation Index=^3 H Thymidine Incorporation in peptide-stimulated culture in cpm divided by Thymidine incorporation in control culture in cpm.
Peptides corresponding to stretches of the amino acid sequence of human p69 were also synthesised and the proliferative response to patient PBMC cultures to these peptides were similarly tested, in the presence of IL2.

The test system is the same in experiment [2]. Description: T cell proliferation assay with BSA and rec-p69, patients (Example 3). Format: cell-based, human. As to conditions: 1 μg antigen. The procedure: as §1
(§3) Control cultures were treated with 1 μg human, chick or horse albumin or an equivalent volume of control recombinant antigen prepared from lysates of E. coli carrying wild type plasmid.
as §2
(§4) A parallel set of cell cultures was incubated with the same test antigens or control agents in the presence of 10 U human IL2.

For experiment [3], the system named is PBMC from healthy subjects. Description: T cell proliferation assay with BSA and rec-p69, healthy subjects (Example 3). As to conditions: with or without IL2. Format: cell-based, human. Here is the method: as §1, §3, §2, §4
Experiment [4] concerns PBMC cultures from patients with recent onset diabetes. Description: Proliferative responses to antigen mixtures (Example 5). Format: cell-based, human. As to conditions: patient PBMC, no IL2 (FIG. 9A). Here is the method: Proliferation assays were conducted as described in Example 3. Control cultures were treated with 1 μg horse albumin or with the peptides P2240, P2269, P2270 or H1029. Results with control antigens were similar and data were pooled.
Responses were expressed as mean of triplicate cultures; variations were <12%. Responses in the absence of IL2 are shown in FIG. 9, Panel A. Parallel cultures were treated with the same antigens and antigen mixtures in the presence of 10U IL2.

The subject of experiment [5] is PBMC from a child with recent onset diabetes. Description: Proliferative response, patient cells (Example 6). Format: cell-based, human. As to conditions: 1 μg antigen per culture, 7 days. The procedure:
Replicate cultures of PBMC from a child with recent onset diabetes and a healthy control subject were stimulated with P2267, Tep69, Herpes simplex antigen or a mixture of P2267 and Tep69 (1 μg antigen per culture) as described in Example 3. After 2 days of incubation, one patient cell culture and one healthy control culture were harvested for RNA extraction and measurement of IL2 receptor transcripts by RT-PCR, as described by Cheung et al., (1991), J. Biol. Chem., v. 266, pp. 8667-8670. PCR was used to amplify a 739 bp fragment of IL2R coding sequence from patient and control and also a 430 bp region in the human β-actin gene of patient.
Remaining cultures were incubated for a further 5 days and used to determine proliferative responses as described in Example 3.

Experiment [6] deals with female NOD mice. As to the kind of experiment: IDDM development after immunotherapy with BSA or ABBOS in adjuvant (Example 7). Format: in vivo, mouse. As to conditions: 150 μg BSA or 50 μg ABBOS in incomplete Freund's Adjuvant sc at 5 weeks, ip booster one week later; up to 9 months. The procedure: (§5) A control group (13 mice) was injected with incomplete Freund's Adjuvant only and a further control group (13 mice) was untreated. A booster injection of the same treatment material was given intraperitoneally one week later.
IDDM development was followed by testing for urine glucose and when urine glucose was detected, blood glucose was then determined.

For experiment [7], the system named is female NOD mice. Description: Circulating IgG anti-BSA antibodies by particle concentration fluoroimmunoassay (Example 7). As to conditions: same treatment; over 34 weeks. Format: in vivo, mouse. Here is the method: as §5
Circulating IgG anti-BSA antibodies were measured over the 34 weeks of the experiment, using the particle concentration fluoroimmunoassay described by the inventors in International Patent Application No. PCT/CA93/000304.

Experiment [8] deals with NOD mice lymph node cells. As to the kind of experiment: Immunization and T cell proliferation assay, NOD mice (Example 11). Format: in vivo, mouse. As to conditions: 50 μg sc in complete Freund's adjuvant, recall with 1 μg antigen in vitro. Here is the method:
(§6) Recombinant truncated p69 was prepared by expression of a portion of the cDNA of IS4. The cDNA was cut a few nucleotides downstream of the 3' terminal of exon 3 and was subcloned into the PET™ expression system according to the manufacturer's recommendations (Novagen Inc., Madison, Wis.). The truncated protein contains 100 amino acids and is essentially identical with the murine molecule.
(§7) Antigens were injected subcutaneously in complete Freunds' adjuvant, and local lymph nodes and blood samples were collected 10 days later. Triplicate cultures of 2×10^5 lymph node cells were incubated for 5 days in serum-free HGM-af Medium™ (Promo Cell, Heidelberg, Germany) in the presence of 1 μg of protein or synthetic peptide as recall antigen. Six hours before harvesting, 1 μCi ^3 H-thymidine (6.7 Ci/mmol) was added to the wells, and isotope incorporation was analysed by liquid scintillation counting. Values are expressed as mean counts per minute ± standard deviation (mean cpm ± SD).
(§8) Young male NOD mice (H2^G7, IE^-/-) received a single immunization with truncated p69 (as encoded by IS4 cDNA) in complete adjuvant, and antibody and T cell proliferative responses were measured 8-10 days later. MHC disparate C57/B6 (H2^b, IE^-/-) and SJL (H2^s, IE^-/-) mice served as non-diabetes prone controls (FIG. 31).

Experiment [9] has as its system C57/B6 and SJL mice lymph node cells. As to the kind of experiment: Immunization and T cell proliferation assay, non-diabetes prone control mice (Example 11). As to conditions: 50 μg sc in complete Freund's adjuvant. Format: in vivo, mouse. The procedure: as §6, §7, §8
Experiment [10] relates to NOD mice. Description: Serum antibodies to BSA and p69 by fluoroimmunoassay, NOD mice (Example 11). Format: in vivo, mouse. As to conditions: 50 μg sc in complete Freund's adjuvant. The procedure:
(§9) Male non-obese diabetic mice (NOD, 6-7 weeks old) were immunized with 50 μg BSA, ABBOS-short peptide ([…]), recombinant truncated p69 or p69 T cell epitope peptide `Tep69` ([…]) (10). Recombinant truncated p69 was prepared by expression of a portion of the cDNA of IS4. The cDNA was cut a few nucleotides downstream of the 3' terminal of exon 3 and was subcloned into the PET™ expression system according to the manufacturer's recommendations (Novagen Inc., Madison, Wis.).
(§10) Antigens were injected subcutaneously in complete Freunds' adjuvant, and local lymph nodes and blood samples were collected 10 days later. […] Six hours before harvesting, 1 μCi ^3 H-thymidine (6.7 Ci/mmol) was added to the wells, and isotope incorporation was analysed by liquid scintillation counting. Values are expressed as mean counts per minute ± standard deviation (mean cpm ± SD).
(§11) Serum antibodies to BSA and p69 were measured by particle concentration fluoroimmunoassay, as described (11). […] Bound fluorescence was read by an automated ScreenMachine™ instrument (IDEXX, Portland, Me.). Data are expressed in kilofluorescence units relative to a standard mouse serum analyzed in parallel within each assay plate.
(§12) Young male NOD mice (H2^G7, IE^-/-) received a single immunization with truncated p69 (as encoded by IS4 cDNA) in complete adjuvant, and antibody and T cell proliferative responses were measured 8-10 days later. […]

Experiment [11] concerns C57/B6 and SJL mice. Description: Serum antibodies to BSA and p69 by fluoroimmunoassay, control mice (Example 11). Format: in vivo, mouse. As to conditions: 50 μg sc in complete Freund's adjuvant. The procedure:
as §9, §10, §11, §12

On to bovine serum albumin [BSA], for which the “PBMC proliferative response” value in experiment [1] was “significantly higher than responses to control antigens or peptides”. Besides, the results for the “proliferative response of patient samples” value in experiment [2] (absence of IL2) and in experiment [2] (presence of 10 U IL2) were “marked proliferative response” and “increased response”, respectively. Further, the “proliferative response of samples from healthy subjects” value in experiment [3] is reported as “no significant proliferative response”. In addition, the “PBMC proliferation in the absence of IL2” value in experiment [4] was “gave PBMC proliferation in the absence of IL2”. In addition, in experiment [5], the “proliferation of patient cells” value is 6740±480 cpm. Also, the “development of IDDM” value in experiment [6] is reported as “complete prevention of IDDM”. Also, the anti-BSA antibody response entry in experiment [7] was “massive antibody response”. Also, the “T cell proliferative response after immunisation” value in [8] was “vigorous B- and T cell responses”; in experiment [9] it was “vigorous B- and T cell responses”. Moreover, the “antibody response after immunisation (anti-p69 or anti-BSA)” value was “vigorous B- and T cell responses” in experiment [10]; “vigorous B- and T cell responses” in experiment [11].
